# Legend:
# [1] = target: T1, DNA gyrase (Escherichia coli) (UniProt P0AES6+P0AES4); test: In vitro inhibitory concentration which show total effect against Escherichia coli HR DNA gyrase; format: protein-complex assay
# Enterococcus faecalis = test: In vitro antibacterial activity expressed as MIC against Enterococcus faecalis; format: functional
# Klebsiella aerogenes [2] = test: (§1) In vitro antibacterial activity expressed as MIC against Enterobacter aerogenes
# Haemophilus influenzae [3] = test: (§2) In vitro antibacterial activity expressed as MIC against Haemophilus influenzae
# Morganella morganii = test: In vitro antibacterial activity expressed as MIC against Morganella morganii II; format: functional
# Proteus mirabilis [4] = test: (§3) In vitro antibacterial activity expressed as MIC against Proteus mirabilis
# Providencia stuartii = test: In vitro antibacterial activity expressed as MIC against Providencia stuartii II; format: functional
# Providencia rettgeri [5] = test: (§4) In vitro antibacterial activity expressed as MIC against Providencia rettgeri
# Serratia marcescens = test: In vitro antibacterial activity expressed as MIC against Serratia marcescens; format: functional
# [6] = system: Staphylococcus epidermidis; test: In vitro antibacterial activity expressed as MIC against Staphylococcus epidermidis; format: functional
# [7] = target: T1, DNA gyrase (Escherichia coli); test: In vitro antibacterial activity expressed as MIC against Escherichia coli HR DNA gyrase; format: protein-complex assay
# Staphylococcus aureus = test: In vitro antibacterial activity expressed as MIC against Staphylococcus aureus; format: functional
# Streptococcus pneumoniae = test: In vitro antibacterial activity expressed as MIC against Streptococcus pneumoniae; format: functional
# Klebsiella oxytoca [8] = test: (§5) In vitro antibacterial activity expressed as MIC against Klebsiella oxytoca
# [9] = target: T1, DNA gyrase (Escherichia coli); test: In vitro inhibitory least concentration which show effect against Escherichia coli HR DNA gyrase; format: protein-complex assay
# Escherichia coli = test: In vitro antibacterial activity expressed as MIC against Escherichia coli; format: functional
# Klebsiella aerogenes [10] = test: as §1; format: functional
# Haemophilus influenzae [11] = test: as §2; format: functional
# Klebsiella oxytoca [12] = test: as §5; format: functional
# Pseudomonas aeruginosa = test: In vitro antibacterial activity expressed as MIC against Pseudomonas aeruginosa; format: functional
# Proteus mirabilis [13] = test: as §3; format: functional
# [14] = In vitro antibacterial activity expressed as MIC against Clostridium perfringens; format: functional
# Providencia rettgeri [15] = test: as §4; format: functional
Structure (SMILES),IC0 [1] [µg/mL],IC100 [1] [µg/mL],MIC (Enterococcus faecalis) [µg/mL],MIC (Morganella morganii) [µg/mL],MIC (Providencia stuartii) [µg/mL],MIC (Serratia marcescens) [µg/mL],MIC [6] [µg/mL],MIC [7] [µg/mL],MIC (Staphylococcus aureus) [µg/mL],MIC (Streptococcus pneumoniae) [µg/mL],IC0 [9] [µg/mL],MIC (Escherichia coli) [µg/mL],MIC (Klebsiella aerogenes [10]) [µg/mL],MIC (Haemophilus influenzae [11]) [µg/mL],MIC (Klebsiella oxytoca [12]) [µg/mL],MIC (Pseudomonas aeruginosa) [µg/mL],MIC (Proteus mirabilis [13]) [µg/mL],MIC [14] [µg/mL],MIC (Providencia rettgeri [15]) [µg/mL],other results
O=C(O)c1cn(C2CC2)c2cc(N3CCNCC3)c(F)cc2c1=O [CIPROFLOXACIN],0.12,10,0.5,0.08,0.03,0.03,0.5,0.009,0.25,0.25,,,,,,,,,,MIC (Klebsiella aerogenes [2]): 0.03 µg/mL; MIC (Haemophilus influenzae [3]): 0.03 µg/mL; MIC (Proteus mirabilis [4]): 0.008 µg/mL; MIC (Providencia rettgeri [5]): 0.5 µg/mL; MIC (Klebsiella oxytoca [8]): 0.06 µg/mL
N[C@H]1CCN(c2ccc3c(=O)c(C(=O)O)cn(C4CC4)c3c2F)C1,,10,0.25,0.015,0.06,0.03,0.125,0.009,0.06,0.5,0.32,0.007,0.03,0.007,0.06,0.25,0.03,0.5,1,
CCn1cc(C(=O)O)c(=O)c2cc(F)c(N3CCN(C)CC3)cc21,0.64,20,,,,,,0.019,,,,,,,,,,,,
N[C@H]1CCN(c2cc3c(cc2F)c(=O)c(C(=O)O)cn3C2CC2)C1,,20,0.25,0.016,0.03,0.03,0.03,0.005,0.06,0.13,0.24,0.008,0.016,0.002,0.03,0.25,0.03,0.25,0.5,
CCn1cc(C(=O)O)c(=O)c2ccc(C)nc21,25,200,,,,,,2.5,,,,,,,,,,,,
N[C@H]1CCN(c2ccc3c(=O)c(C(=O)O)cn(C4CC4)c3c2)C1,,20,4,0.13,1,0.5,0.25,0.009,0.5,2,0.32,0.03,0.06,0.08,0.25,0.5,0.13,,8,
N[C@H]1CCN(c2cc(F)c3c(=O)c(C(=O)O)cn(C4CC4)c3c2F)C1,,10,4,0.06,0.5,0.25,0.5,0.078,1,4,0.32,0.06,0.25,0.06,0.5,2,0.13,1,8,
N[C@H]1CCN(c2cc(F)c3c(=O)c(C(=O)O)cn(C4CC4)c3c2)C1,,20,16,0.25,1,0.5,8,0.156,8,4,0.64,0.25,0.5,0.13,1,4,0.5,,16,

# — ChEMBL document CHEMBL1149932, “DNA - gyrase inhibition and antibacterial activity of fluoro-quinolones: influence of the position of the fluorine(s)” (1992)
